Here are results for 19 compounds from ChEMBL document CHEMBL3259742, “Design and synthesis of triazolopyrimidine acylsulfonamides as novel anti-mycobacterial leads acting through inhibition of acetohydroxyacid synthase” (Bioorg Med Chem Lett, 2014).

Values after ≈ are worked out from the molar mass of the structure shown.

Assay [1] has as its system Mycobacterium tuberculosis. The assay is described as follows: Antimycobacterial activity against Mycobacterium tuberculosis H37Rv ATCC 27294 after 7 days by resazurin assay. In kind it is functional. The conditions noted are these: H37Rv ATCC 27294, 168 h. In general terms: The colour change of resazurin is a common sign of viable cells or microbes.
Assay [2] can be described thus: Inhibition of Mycobacterium tuberculosis acetohydroxy acid synthase after 60 mins by acetoin formation-based colorimetry.
In assay [3] the test system is Mycobacterium tuberculosis. The assay is described as follows: Antimycobacterial activity against Mycobacterium tuberculosis H37Rv ATCC 27294 after 7 days by resazurin assay in presence of Isoleucine, Leucine and Valine. Type of assay: functional. Conditions: H37Rv ATCC 27294, 168 h.

What is called MIC is the lowest concentration that inhibits growth of the organism. A word on the pIC50: it is −log10 of the IC50, conventionally taken in molar units. With `COc1ccccc1S(=O)(=O)NC(=O)c1nc2nc(C)cc(C)n2n1`, the MIC in assay [1] is 0.5 µg/mL (≈ 1.38 µM); in assay [3], above 32 µg/mL. Also, the pIC50 in assay [2] was 5.81.

Regarding `Cc1cc(C)n2nc(C(=O)NS(=O)(=O)c3ccccc3C(F)(F)F)nc2n1`, the minimal inhibitory concentration (MIC) in assay [1] is at most 0.13 µg/mL; in assay [3], above 32 µg/mL. Further, in assay [2], the pIC50 amounted to 6.98.

With `COC(=O)c1ccccc1S(=O)(=O)NC(=O)Nc1nc(C)cc(C)n1` [SULFOMETURON METHYL], the MIC is 16 µg/mL (≈ 43.9 µM) in assay [1] and above 32 µg/mL in assay [3]. The same compound showed a pIC50 in assay [2] of 6.12.

On to `Cc1cc(C)n2nc(C(=O)NS(=O)(=O)c3c(C)cccc3C)nc2n1`, for which the MIC in assay [1] is 0.5 µg/mL (≈ 1.39 µM); in assay [3], above 32 µg/mL. In assay [2], the pIC50 turned out to be 6.54.

Regarding `COC(=O)c1ccccc1S(=O)(=O)NC(=O)c1nc2nc(C)cc(C)n2n1`, the MIC in assay [1] was 0.25 µg/mL (≈ 0.642 µM); in assay [3], above 32 µg/mL. The same compound had a pIC50 in assay [2] of 7.15.

For the compound `Cc1cc(C)n2nc(C(=O)NS(=O)(=O)c3ccccc3OC(F)(F)F)nc2n1`, the MIC in assay [1] was 0.03 µg/mL (≈ 0.0722 µM); in assay [3], above 32 µg/mL. The same compound displayed a pIC50 in assay [2] of 7.6.

`Cc1cc(C)n2nc(C(=O)NS(=O)(=O)c3ccccc3F)nc2n1`: the MIC in assay [1] and in assay [3] was above 32 µg/mL in each case. For the same compound, the pIC50 in assay [2] came to 5.24.

In turn, `Cc1cc(C)n2nc(C(=O)NS(=O)(=O)c3cccc(Br)c3)nc2n1` gave an MIC in assay [1] of 32 µg/mL (≈ 78 µM). The pIC50 in assay [2] came to 5.31.

Consider `Cc1cc(C)n2nc(C(=O)NS(=O)(=O)c3c(C)cccc3Cl)nc2n1`, for which the MIC in assay [1] is 0.25 µg/mL (≈ 0.658 µM); in assay [3], above 32 µg/mL. The compound also gave a pIC50 in assay [2] of 6.7.

`Cc1cc(C)n2nc(C(=O)NS(=O)(=O)c3ccccc3Br)nc2n1`: the MIC in assay [1] is 0.25 µg/mL (≈ 0.609 µM); in assay [3], above 32 µg/mL. In assay [2], this compound registered a pIC50 of 7.04.

As for `Cc1cc(C)n2nc(C(=O)NS(=O)(=O)c3ccc(OC(F)(F)F)cc3)nc2n1`, the minimal inhibitory concentration (MIC) in assay [1] is above 32 µg/mL. The compound also had a pIC50 in assay [2] below 4.52.

Compound `Cc1cc(C)n2nc(C(=O)NS(=O)(=O)c3cccc(OC(F)(F)F)c3)nc2n1` gave an MIC in assay [1] of 16 µg/mL (≈ 38.5 µM). The compound further displayed a negative-log IC50 (pIC50) in assay [2] of 5.6.

Take `Cc1cc(C)n2nc(C(=O)NS(=O)(=O)c3cccc(C(F)(F)F)c3)nc2n1`: the MIC in assay [1] came to 16 µg/mL (≈ 40.1 µM). Also, the pIC50 in assay [2] is 5.36.

In the case of `Cc1cc(C)n2nc(C(=O)NS(=O)(=O)c3ccccc3OC(F)F)nc2n1`, the MIC is below 0.25 µg/mL in assay [1] and above 32 µg/mL in assay [3]. The compound further displayed a pIC50 in assay [2] above 7.2.

`Cc1cc(C)n2nc(C(=O)NS(=O)(=O)c3ccccc3Cl)nc2n1`: the MIC is 2 µg/mL (≈ 5.47 µM) in assay [1] and above 32 µg/mL in assay [3]. Also, the pIC50 in assay [2] was determined as 6.82.

`Cc1cc(C)n2nc(C(=O)NS(=O)(=O)c3ccccc3CC#N)nc2n1` came in with an MIC in assay [1] of 32 µg/mL (≈ 86.4 µM). The compound also gave a pIC50 in assay [2] of 6.59.

`Cc1cc(C)n2nc(C(=O)NS(=O)(=O)c3ccccc3C)nc2n1`: the MIC in assay [1] is 1 µg/mL (≈ 2.9 µM); in assay [3] it was above 32 µg/mL. Besides, in assay [2], the pIC50 is recorded as 6.29.

In turn, `Cc1cc(C)n2nc(C(=O)NS(=O)(=O)c3ccc(C(F)(F)F)cc3)nc2n1` returned a minimal inhibitory concentration (MIC) in assay [1] above 32 µg/mL. In assay [2], the pIC50 is given as below 4.52.

Consider `Cc1cc(C)n2nc(C(=O)NS(=O)(=O)c3c(C)cccc3OC(F)(F)F)nc2n1`, for which the MIC in assay [1] is at most 0.03 µg/mL; in assay [3], above 32 µg/mL. For the same compound, the pIC50 in assay [2] was 7.75.
